Laboratory results from US12569468B2, “Use of palovarotene in treatment against HBV virus” (YANG SHENG TANG COMPANY, LTD., priority 2020, dated 2026).

Assays:
Format in all cases: cell-based, hepatitis B virus
[1] = tested on: HBV cccDNA; assay: Southern blot detection of HBV cccDNA in infected HepG2-hNTCP 2B1; conditions: 5 μM, day 6 to day 12 after infection, compared with interferon IFNα 500 IU control group and blank group
Protocol: Southern blot experiment was carried out on a 10 cm^2 culture plate. About 5×10^6 HepG2-hNTCP 2B1 cells were plated in each 10 cm^2 culture plate, and medium B was added. After the cells adhered, medium A was used for replacement to perform the induction with Doxycycline during the whole experiment. HBV infection was performed 4 days after the induction with Doxycycline, and the amount of HBV for infection was 1000 MOI. Before infection, HBV was diluted in medium C to obtain HBV solution, and the infection volume was 5 mL. During infection, the cell supernatant was first removed by suction, the HBV solution was added to the cells, the cells were incubated for 24 hours, then the supernatant was collected as the sample of Day 0. Then the cells were washed three times with PBS, and fresh medium A was used for replacement. After that, the supernatant was collected every two days for detection, fresh medium A was used for replacement. […]

[2] = tested on: HBV; assay: Inhibitory effect on HBV infection in human primary hepatocytes (drug before infection); conditions: 1, 5, 25 μM, treatment before infection, to day 8, p<0.05
Description: Primary hepatocytes were isolated from humanized mice transplanted with primary human hepatocytes through perfusion technique (refer to: Foquet, Lander, et al. “Successful engraftment of human hepatocytes in uPA-SCID and FRG® KO mice.” Hepatocyte Transplantation. Humana Press, New York, NY, 2017. 117-130, Wan-Chun Li, et al. “Isolation and Culture of Adult Mouse Hepatocytes.” Mouse Cell Culture. Humana Press, 2010. 185-196.), directly cultured in 24-well plates (Collagen I pre-coated 24-well plates, purchased from Thermo Scientific) after counting (about 5×10^5 primary hepatocytes per well), and medium H was added to maintain hepatocyte morphology (refer to: Xiang, Chengang, et al. “Long-term functional maintenance of primary human hepatocytes in vitro.” Science 364.6438 (2019): 399-402.). After culturing for 24 hours, drug-containing medium H was used to replace the drug-free medium H to perform drug treatment for 24 hours, and then infection was carried out with HBV, and the amount of HBV for infection in each well was 2000 MOI. Before infection, HBV was first diluted in medium I to obtain HBV solution, and the infection volume was 250 μL/well. During infection, the cell supernatant was first removed by suction, the HBV solution was added to the cells, the cells were incubated for 24 hours, then the supernatant was collected as the sample of Day 0. Then the cells were washed 3 times with PBS that was warmed in bath at 37° C., and fresh drug-containing medium H (500 μL per well) was used for replacement, then the supernatant was collected every two days for detection, fresh drug-containing medium H was used for replacement, until the 8th day, all the supernatants and cells were collected for relevant detection. The detection items included HBsAg, HBeAg, HBV DNA, HBV cccDNA, and for the detection method, please refer to Example 1.

[3] = tested on: HBV; assay: Therapeutic effect on human primary hepatocytes infected by HBV (drug from day 8 after infection); conditions: drug added 8 days after infection
Protocol: The drug to be tested and the positive control drug were diluted with medium H to the required concentrations, and to the blank group the same volume of medium H without drug was added.
Primary hepatocytes were isolated from humanized mice transplanted with primary human hepatocytes through perfusion technique, directly cultured in 24-well plates after counting (5×10^5 primary hepatocytes per well), and medium H was added to maintain hepatocyte morphology. Infection with HBV was performed 24 hours after culturing, the amount of HBV for infection in each well was 2000 MOI. Before infection, HBV was first dissolved in medium I to obtain HBV solution, and the infection volume was 250 μL/well. During infection, the cell supernatant was first removed by suction, the HBV solution was added to the cells, the cells were incubated for 24 hours, then the supernatant was collected as the sample of Day 0, and then the supernatant was collected every two days for detection, fresh medium H was used for replacement. On the 8th day, fresh drug-containing medium H was used for replacement to start the drug treatment, until the 14th day, all the supernatant and the cells were collected for relevant detection. The detection items included: HBsAg, HBeAg, HBV DNA, HBV cccDNA, and for the detection method, please refer to Example 1.

[4] = to day 14, p<0.05, more obvious at 5 μM and 25 μM

CC1(C)CCC(C)(C)c2cc(Cn3cccn3)c(/C=C/c3ccc(C(=O)O)cc3)cc21 [Palovarotene]
level of HBV cccDNA (Southern blot) [1]: significantly lower | level of HBeAg in the cell supernatant [2]: significantly inhibit | level of HBsAg in the cell supernatant [2]: significantly inhibit | level of intracellular HBV DNA [2]: significantly inhibit | level of intracellular cccDNA [2]: significantly inhibit | HBV cccDNA ([3]; to day 14, 25 μM, p<0.01): significant inhibitory effects | HBV DNA ([3]; to day 14, 25 μM, p<0.05): significant inhibitory effects | level of HBeAg in the cell supernatant [3, 4]: significantly inhibited | level of HBsAg in the cell supernatant [3, 4]: significantly inhibited
